Measured values from patent US12077503B2, “Substituted cyclic amides and their use as herbicides” (FMC CORPORATION, priority 2015, dated 2024).

Tests used:
[1] = tested on: nutsedge, yellow (yellow nutsedge, Cyperus esculentus); experiment: Test C preemergence; assay type: in vivo; details: for Plant response rating, Nutsedge, Yellow: scale 0 to 100, 0 no effect, 100 complete control
In short: (§1)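 Scores of 0 to 100 reflect visual comparison with control plants, where 0 means no effect and 100 complete control, made 13 to 15 d after treatment. Application was preemergence to seeds in loam-sand soil or postemergence to plants 2 to 18 cm tall in peat-based mix, using a surfactant-containing solvent formulation.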

[2] = tested on: blackgrass (Alopecurus myosuroides); experiment: Test C preemergence; assay type: in vivo; details: for Plant response rating, Blackgrass: scale 0 to 100, 0 no effect, 100 complete control
In short: as §1

[3] = tested on: morningglory (Ipomoea coccinea); experiment: Test C preemergence; assay type: in vivo; details: for Plant response rating, Morningglory: scale 0 to 100, 0 no effect, 100 complete control
In short: as §1

[4] = tested on: ryegrass, Italian (Italian ryegrass, Lolium multiflorum); experiment: Test C preemergence; assay type: in vivo; details: for Plant response rating, Ryegrass, Italian: scale 0 to 100, 0 no effect, 100 complete control
In short: as §1

[5] = tested on: barnyardgrass (Echinochloa crus-galli); experiment: Test C preemergence; assay type: in vivo; details: for Plant response rating, Barnyardgrass: scale 0 to 100, 0 no effect, 100 complete control
In short: as §1

[6] = tested on: johnsongrass (Sorghum halepense); experiment: Test C preemergence; assay type: in vivo; details: for Plant response rating, Johnsongrass: scale 0 to 100, 0 no effect, 100 complete control
In short: as §1

[7] = tested on: wheat (winter wheat, Triticum aestivum); experiment: Test C preemergence; assay type: in vivo; details: for Plant response rating, Wheat: scale 0 to 100, 0 no effect, 100 complete control
In short: as §1

[8] = tested on: ragweed (common ragweed, Ambrosia elatior); experiment: Test C preemergence; assay type: in vivo; details: for Plant response rating, Ragweed: scale 0 to 100, 0 no effect, 100 complete control
In short: as §1

[9] = tested on: pigweed (Amaranthus retroflexus); experiment: Test C preemergence; assay type: in vivo; details: for Plant response rating, Pigweed: scale 0 to 100, 0 no effect, 100 complete control
In short: as §1

[10] = tested on: crabgrass, large (large crabgrass, Digitaria sanguinalis); experiment: Test C preemergence; assay type: in vivo; details: for Plant response rating, Crabgrass, Large: scale 0 to 100, 0 no effect, 100 complete control
In short: as §1

[11] = tested on: soybean (Glycine max); experiment: Test C preemergence; assay type: in vivo; details: for Plant response rating, Soybean: scale 0 to 100, 0 no effect, 100 complete control
In short: as §1

[12] = tested on: Galium (catchweed bedstraw, Galium aparine); experiment: Test C preemergence; assay type: in vivo; details: for Plant response rating, Galium: scale 0 to 100, 0 no effect, 100 complete control
In short: as §1

[13] = tested on: corn (Zea mays); experiment: Test C preemergence; assay type: in vivo; details: for Plant response rating, Corn: scale 0 to 100, 0 no effect, 100 complete control
In short: as §1

[14] = tested on: velvetleaf (Abutilon theophrasti); experiment: Test C preemergence; assay type: in vivo; details: for Plant response rating, Velvetleaf: scale 0 to 100, 0 no effect, 100 complete control
In short: as §1

[15] = tested on: waterhemp (common waterhemp, Amaranthus rudis); experiment: Test C preemergence; assay type: in vivo; details: for Plant response rating, Waterhemp: scale 0 to 100, 0 no effect, 100 complete control
In short: as §1

[16] = tested on: oilseed rape (Brassica napus); experiment: Test C preemergence; assay type: in vivo; details: for Plant response rating, Oilseed Rape: scale 0 to 100, 0 no effect, 100 complete control
In short: as §1

[17] = tested on: foxtail, giant (giant foxtail, Setaria faberii); experiment: Test C preemergence; assay type: in vivo; details: for Plant response rating, Foxtail, Giant: scale 0 to 100, 0 no effect, 100 complete control
In short: as §1

[18] = 31 g ai/ha, 0 is no effect, 100 is complete control

SMILES: C=C(C)c1ccc([C@H]2CN(C)C(=O)[C@@H]2C(=O)Nc2ccc(F)c(F)c2F)cc1 [Compound 1148]
- melting point: 132 to 136 °C

SMILES: O=C1NC[C@H](c2ccc(C(F)(F)F)cn2)[C@H]1C(=O)Nc1cccc(F)c1F [Compound 1104]
- melting point: 192 to 196 °C

SMILES: CC(C)=CC1CNC(=O)C1C(=O)Nc1ccccc1F (centres unmarked) [Compound 1011]
- melting point: 136 to 140 °C

SMILES: Cc1cc([C@H]2CN(C)C(=O)[C@@H]2C(=O)Nc2cccc(F)c2F)no1 [Compound 1237]
- melting point: 97 to 101 °C

SMILES: CC(O)c1ccccc1NC(=O)C1C(=O)N(C)CC1c1cccc(C(F)(F)F)c1 (centres unmarked) [Compound 1147]
- melting point: 107.5 to 115.4 °C

SMILES: C=C(C)c1cccc([C@H]2CN(C)C(=O)[C@@H]2C(=O)Nc2ccc(F)c(F)c2F)c1 [Compound 1087]
- melting point: 98 to 102 °C

SMILES: O=C1NCC(c2cccc(OC(F)(F)C(F)F)c2)C1C(=O)Nc1cccc(F)c1F (racemic) [Compound 697]
- Plant response rating (scale of 0 to 100), Nutsedge, Yellow [1, 18]: 0
- Plant response rating, Nutsedge, Yellow ([1]; 62 g ai/ha): 0
- Plant response rating, Nutsedge, Yellow ([1]; 125 g ai/ha): 0
- Plant response rating, Nutsedge, Yellow ([1]; 250 g ai/ha): 0
- Plant response rating (scale of 0 to 100), Blackgrass [2, 18]: 70
- Plant response rating, Blackgrass ([2]; 62 g ai/ha): 75
- Plant response rating, Blackgrass ([2]; 125 g ai/ha): 90
- Plant response rating, Blackgrass ([2]; 250 g ai/ha): 90
- Plant response rating (scale of 0 to 100), Morningglory [3, 18]: 10
- Plant response rating, Morningglory ([3]; 62 g ai/ha): 10
- Plant response rating, Morningglory ([3]; 125 g ai/ha): 25
- Plant response rating, Morningglory ([3]; 250 g ai/ha): 30
- Plant response rating (scale of 0 to 100), Ryegrass, Italian [4, 18]: 15
- Plant response rating, Ryegrass, Italian ([4]; 62 g ai/ha): 55
- Plant response rating, Ryegrass, Italian ([4]; 125 g ai/ha): 45
- Plant response rating, Ryegrass, Italian ([4]; 250 g ai/ha): 50
- Plant response rating (scale of 0 to 100), Barnyardgrass [5, 18]: 85
- Plant response rating, Barnyardgrass ([5]; 62 g ai/ha): 90
- Plant response rating, Barnyardgrass ([5]; 125 g ai/ha): 90
- Plant response rating, Barnyardgrass ([5]; 250 g ai/ha): 90
- Plant response rating (scale of 0 to 100), Johnsongrass [6, 18]: 70
- Plant response rating, Johnsongrass ([6]; 62 g ai/ha): 75
- Plant response rating, Johnsongrass ([6]; 125 g ai/ha): 85
- Plant response rating, Johnsongrass ([6]; 250 g ai/ha): 85
- Plant response rating (scale of 0 to 100), Wheat [7, 18]: 0
- Plant response rating, Wheat ([7]; 62 g ai/ha): 0
- Plant response rating, Wheat ([7]; 125 g ai/ha): 10
- Plant response rating, Wheat ([7]; 250 g ai/ha): 35
- Plant response rating (scale of 0 to 100), Ragweed [8, 18]: 60
- Plant response rating, Ragweed ([8]; 62 g ai/ha): 80
- Plant response rating, Ragweed ([8]; 125 g ai/ha): 80
- Plant response rating, Ragweed ([8]; 250 g ai/ha): 80
- Plant response rating (scale of 0 to 100), Pigweed [9, 18]: 75
- Plant response rating, Pigweed ([9]; 62 g ai/ha): 80
- Plant response rating, Pigweed ([9]; 125 g ai/ha): 85
- Plant response rating, Pigweed ([9]; 250 g ai/ha): 85
- Plant response rating (scale of 0 to 100), Crabgrass, Large [10, 18]: 90
- Plant response rating, Crabgrass, Large ([10]; 62 g ai/ha): 95
- Plant response rating, Crabgrass, Large ([10]; 125 g ai/ha): 90
- Plant response rating, Crabgrass, Large ([10]; 250 g ai/ha): 95
- Plant response rating (scale of 0 to 100), Soybean [11, 18]: 0
- Plant response rating, Soybean ([11]; 62 g ai/ha): 10
- Plant response rating, Soybean ([11]; 125 g ai/ha): 0
- Plant response rating, Soybean ([11]; 250 g ai/ha): 10
- Plant response rating (scale of 0 to 100), Galium [12, 18]: 0
- Plant response rating, Galium ([12]; 62 g ai/ha): 85
- Plant response rating, Galium ([12]; 125 g ai/ha): 85
- Plant response rating, Galium ([12]; 250 g ai/ha): 90
- Plant response rating (scale of 0 to 100), Corn [13, 18]: 40
- Plant response rating, Corn ([13]; 62 g ai/ha): 65
- Plant response rating, Corn ([13]; 125 g ai/ha): 80
- Plant response rating, Corn ([13]; 250 g ai/ha): 75
- Plant response rating (scale of 0 to 100), Velvetleaf [14, 18]: 0
- Plant response rating, Velvetleaf ([14]; 62 g ai/ha): 25
- Plant response rating, Velvetleaf ([14]; 125 g ai/ha): 65
- Plant response rating, Velvetleaf ([14]; 250 g ai/ha): 35
- Plant response rating (scale of 0 to 100), Waterhemp [15, 18]: 80
- Plant response rating, Waterhemp ([15]; 62 g ai/ha): 80
- Plant response rating, Waterhemp ([15]; 125 g ai/ha): 85
- Plant response rating, Waterhemp ([15]; 250 g ai/ha): 85
- Plant response rating (scale of 0 to 100), Oilseed Rape [16, 18]: 20
- Plant response rating, Oilseed Rape ([16]; 62 g ai/ha): 70
- Plant response rating, Oilseed Rape ([16]; 125 g ai/ha): 80
- Plant response rating, Oilseed Rape ([16]; 250 g ai/ha): 85
- Plant response rating (scale of 0 to 100), Foxtail, Giant [17, 18]: 85
- Plant response rating, Foxtail, Giant ([17]; 62 g ai/ha): 85
- Plant response rating, Foxtail, Giant ([17]; 125 g ai/ha): 90
- Plant response rating, Foxtail, Giant ([17]; 250 g ai/ha): 90
